Source: patent US6111067A, “A-82846-type glycopeptide antibiotics” (Eli Lilly and Company, priority 1993, dated 2000)
Values after ≈ are worked out from the molar mass of the structure shown.

Experiments:
[1] = tested on: Staphylococcus epidermidis 270; experiment: In vitro antibacterial activity, agar-dilution MIC; type: cell-based
Streptococcus pneumoniae = experiment: In vivo activity against experimentally-induced infection in mice (ED50); conditions: mice infected with Streptococcus pneumoniae; subcutaneous doses 1 and 4 hours postinfection
Procedure: (§1) The formula 1 compounds have also shown in vivo antimicrobial activity against experimentally-induced infections in laboratory animals. When two doses of test compound were administered to mice experimentally infected with the test organism, the activity observed was measured as an ED50 value [effective dose in mg/kg to protect 50% of the test animals: see Warren Wick, et al., J. Bacteriol. 81, 233-235 (1961)]. ED50 values observed for illustrative compounds are given in Table III. | ^a mg/kg × 2; doses administered subcutaneously to mice 1 and 4 | hours postinfection

Streptococcus pyogenes = experiment: as above; conditions: mice infected with Streptococcus pyogenes; subcutaneous doses 1 and 4 hours postinfection
Procedure: as §1

Staphylococcus aureus = experiment: as above; conditions: mice infected with Staphylococcus aureus; subcutaneous doses 1 and 4 hours postinfection
Procedure: as §1

[2] = tested on: Staphylococcus aureus V41; experiment: In vitro antibacterial activity, agar-dilution MIC; type: cell-based; conditions: Staphylococcus aureus V41, penicillin-resistant strain
Procedure: (§2) The formula 1 compounds have in vitro and in vivo activity against Gram-positive pathogenic bacteria. The MIC's were determined by standard agar-dilution assays.

[3] = tested on: Staphylococcus aureus X1.1; experiment: In vitro antibacterial activity, agar-dilution MIC; type: cell-based
Procedure: as §2

[4] = tested on: Staphylococcus epidermidis 222; experiment: In vitro antibacterial activity, agar-dilution MIC; type: cell-based
Procedure: as §2

[5] = tested on: Klebsiella pneumoniae X26; experiment: In vitro antibacterial activity, agar-dilution MIC; type: cell-based; conditions: highest level tested 128 mcg/mL
Procedure: as §2

[6] = tested on: Streptococcus pyogenes C203; experiment: In vitro antibacterial activity, agar-dilution MIC; type: cell-based
Procedure: as §2

[7] = tested on: Haemophilus influenzae C.L.; experiment: In vitro antibacterial activity, agar-dilution MIC; type: cell-based; conditions: ampicillin-sensitive strain, highest level tested 128 mcg/mL
Procedure: as §2

[8] = tested on: Streptococcus Group D 2041; experiment: In vitro antibacterial activity, agar-dilution MIC; type: cell-based
Procedure: as §2

[9] = tested on: Staphylococcus aureus X400; experiment: In vitro antibacterial activity, agar-dilution MIC; type: cell-based; conditions: Staphylococcus aureus X400, methicillin-resistant strain
Procedure: as §2

Escherichia coli EC14 = experiment: In vitro antibacterial activity, agar-dilution MIC; type: cell-based; conditions: highest level tested 128 mcg/mL
Procedure: as §2

[10] = tested on: Streptococcus Group D X66; experiment: In vitro antibacterial activity, agar-dilution MIC; type: cell-based
Procedure: as §2

[11] = tested on: Haemophilus influenzae 76; experiment: In vitro antibacterial activity, agar-dilution MIC; type: cell-based; conditions: Haemophilus influenzae 76, ampicillin-resistant strain, highest level tested 128 mcg/mL
Procedure: as §2

[12] = tested on: Streptococcus pneumoniae Park I; type: cell-based; conditions: agar dilution
Procedure: as §2

[13] = tested on: Staphylococcus aureus S13E; type: cell-based; conditions: agar dilution
Procedure: as §2

Row | SMILES | MIC [1] | ED50 Value (Streptococcus pneumoniae) | ED50 Value (Streptococcus pyogenes) | ED50 Value (Staphylococcus aureus) | MIC [2] | MIC [3] | MIC [4] | MIC [5] | MIC [6] | MIC [7] | MIC [8] | MIC [9] | MIC (Escherichia coli EC14) | MIC [10] | MIC [11] | MIC [12] | MIC [13]
1 | CN[C@H](CC(C)C)C(=O)N[C@H]1C(=O)N[C@@H](CC(N)=O)C(=O)N[C@H]2C(=O)N[C@H]3C(=O)N[C@H](C(=O)N[C@H](C(=O)O)c4cc(O)cc(O)c4-c4cc3ccc4O)[C@H](O[C@H]3C[C@](C)(N)[C@@H](O)[C@H](C)O3)c3ccc(c(Cl)c3)Oc3cc2cc(c3O[C@@H]2O[C@H](CO)[C@@H](O)[C@H](O)[C@H]2O)Oc2ccc(cc2Cl)[C@H]1O [Compound 3a] | 1 µg/mL (≈ 0.69 µM) | 0.34 mg/kg × 2 | 0.70 mg/kg × 2 | 0.54 mg/kg × 2 | 0.25 µg/mL (≈ 0.173 µM) | 0.25 µg/mL (≈ 0.173 µM) | 0.5 µg/mL (≈ 0.345 µM) | -- (Not active at 128 mcg/mL, the highest level tested) | 0.25 µg/mL (≈ 0.173 µM) | 64 µg/mL (≈ 44.2 µM) | 1 µg/mL (≈ 0.69 µM) | 0.5 µg/mL (≈ 0.345 µM) | -- (Not active at 128 mcg/mL, the highest level tested) | 0.5 µg/mL (≈ 0.345 µM) | -- (Not active at 128 mcg/mL, the highest level tested) | 0.25 µg/mL (≈ 0.173 µM) | 0.25 µg/mL (≈ 0.173 µM)
2 | CN[C@H](CC(C)C)C(=O)N[C@H]1C(=O)N[C@@H](CC(N)=O)C(=O)N[C@H]2C(=O)N[C@H]3C(=O)N[C@H](C(=O)N[C@H](C(=O)O)c4cc(O)cc(O)c4-c4cc3ccc4O)[C@H](O)c3ccc(cc3)Oc3cc2cc(c3O)Oc2ccc(cc2Cl)[C@H]1O [Compound 2c] | 4 µg/mL (≈ 3.61 µM) |  |  |  | 4 µg/mL (≈ 3.61 µM) | 4 µg/mL (≈ 3.61 µM) | 8 µg/mL (≈ 7.21 µM) | -- (Not active at 128 mcg/mL, the highest level tested) | 4 µg/mL (≈ 3.61 µM) | -- (Not active at 128 mcg/mL, the highest level tested) | 16 µg/mL (≈ 14.4 µM) | 8 µg/mL (≈ 7.21 µM) | -- (Not active at 128 mcg/mL, the highest level tested) | 8 µg/mL (≈ 7.21 µM) | -- (Not active at 128 mcg/mL, the highest level tested) | 4 µg/mL (≈ 3.61 µM) | 4 µg/mL (≈ 3.61 µM)
3 | CN[C@H](CC(C)C)C(=O)N[C@H]1C(=O)N[C@@H](CC(N)=O)C(=O)N[C@H]2C(=O)N[C@H]3C(=O)N[C@H](C(=O)N[C@H](C(=O)O)c4cc(O)cc(O)c4-c4cc3ccc4O)[C@H](O[C@H]3C[C@](C)(N)[C@@H](O)[C@H](C)O3)c3ccc(c(Cl)c3)Oc3cc2cc(c3O)Oc2ccc(cc2Cl)[C@H]1O [Compound 3b] | 0.5 µg/mL (≈ 0.388 µM) | 0.30 mg/kg × 2 | 0.40 mg/kg × 2 | 0.50 mg/kg × 2 | 0.25 µg/mL (≈ 0.194 µM) | 0.125 µg/mL (≈ 0.0971 µM) | 0.25 µg/mL (≈ 0.194 µM) | -- (Not active at 128 mcg/mL, the highest level tested) | 0.25 µg/mL (≈ 0.194 µM) | 32 µg/mL (≈ 24.9 µM) | 1 µg/mL (≈ 0.777 µM) | 0.5 µg/mL (≈ 0.388 µM) | -- (Not active at 128 mcg/mL, the highest level tested) | 0.5 µg/mL (≈ 0.388 µM) | 64 µg/mL (≈ 49.7 µM) | 0.25 µg/mL (≈ 0.194 µM) | 0.125 µg/mL (≈ 0.0971 µM)
4 | CNC(CC(C)C)C(=O)NC1C(=O)NC(CC(N)=O)C(=O)NC2C(=O)NC3C(=O)NC(C(=O)NC(C(=O)O)c4cc(O)cc(O)c4-c4cc3ccc4O)C(OC3CC(C)(N)C(O)C(C)O3)c3ccc(cc3)Oc3cc2cc(c3OC2OC(CO)C(O)C(O)C2O)Oc2ccc(cc2Cl)C1O (stereo not shown) [Compound 2a] | 1 µg/mL (≈ 0.707 µM) | 2.04 mg/kg × 2 | 3.54 mg/kg × 2 | 2.97 mg/kg × 2 | 1 µg/mL (≈ 0.707 µM) | 0.5 µg/mL (≈ 0.353 µM) | 1 µg/mL (≈ 0.707 µM) | -- (Not active at 128 mcg/mL, the highest level tested) | 0.5 µg/mL (≈ 0.353 µM) | -- (Not active at 128 mcg/mL, the highest level tested) | 4 µg/mL (≈ 2.83 µM) | 1 µg/mL (≈ 0.707 µM) | -- (Not active at 128 mcg/mL, the highest level tested) | 1 µg/mL (≈ 0.707 µM) | -- (Not active at 128 mcg/mL, the highest level tested) | 1 µg/mL (≈ 0.707 µM) | 0.5 µg/mL (≈ 0.353 µM)
5 | CN[C@H](CC(C)C)C(=O)N[C@H]1C(=O)N[C@@H](CC(N)=O)C(=O)N[C@H]2C(=O)N[C@H]3C(=O)N[C@H](C(=O)N[C@H](C(=O)O)c4cc(O)cc(O)c4-c4cc3ccc4O)[C@H](O[C@H]3C[C@](C)(N)[C@@H](O)[C@H](C)O3)c3ccc(cc3)Oc3cc2cc(c3O)Oc2ccc(cc2Cl)[C@H]1O [Compound 2b] | 2 µg/mL (≈ 1.6 µM) | 3.74 mg/kg × 2 | 3.54 mg/kg × 2 | 3.06 mg/kg × 2 | 1 µg/mL (≈ 0.798 µM) | 1 µg/mL (≈ 0.798 µM) | 2 µg/mL (≈ 1.6 µM) | -- (Not active at 128 mcg/mL, the highest level tested) | 1 µg/mL (≈ 0.798 µM) | -- (Not active at 128 mcg/mL, the highest level tested) | 4 µg/mL (≈ 3.19 µM) | 1 µg/mL (≈ 0.798 µM) | -- (Not active at 128 mcg/mL, the highest level tested) | 1 µg/mL (≈ 0.798 µM) | -- (Not active at 128 mcg/mL, the highest level tested) | 1 µg/mL (≈ 0.798 µM) | 1 µg/mL (≈ 0.798 µM)
